In publication PMC9260974 (BMC Pharmacology & Toxicology, 2022):

What was measured:
[1] = in vivo; cited from earlier work
clinical = settings: human, in vivo
Description: (§1) All eligible subjects were assigned according to the random table generated by SAS 9.4 and took the test (T) and reference(R) drugs respectively with 240 ml water after an overnight fast of at least 10 h (fasting study) or after the high-fat breakfast within half an hour before dosing (fed study). […] Subjects were forbidden to drink water within 1 h before and after taking the drug, and the lunch and dinner were provided at 4 h and 8 h respectively post-drug administration. No other food and beverage intake was permitted except the provided diets. […] 4 ml venous blood samples were collected before drug administration and at 1,2,3,4,5,6,7,8,9,10,11,12,13,24,36,48,72,96,144,168 h after administration. The samples were centrifuged at 1700gear per minute for 10 min at 4℃ to separate the plasma, which was divided into two aliquots (drug monitoring at least 800ul and backup) and stored at - 80℃until analysis.
(§2) The lower limit of quantification (LLOQ) was 0.500 ng/mL and the assay dynamic range was 0.500-100 ng/mL.
(§3) Under multiple reaction monitoring, LC–MS/MS system adopts positive ionization mode.
(§4) Data collection and analysis was performed with Analyst 1.6.3 software (Sciex, Canada) and Watson LIMS (Thermo, USA). Calibration curves were constructed using linear regression equation obtained by the weighted (W = 1/X2) least square method fitting for both analytes. Quantitation of quality control and clinical samples were also performed by the Analyst software using the same mathematical algorithm as that used in the calibration of standard curves.
(§5) For the purpose of bioequivalence analysis, the maximum observed concentration (Cmax), the area under the plasma concentration–time curve from time 0 to the last measured time point (AUC0-t), and the area under the plasma concentration–time curve from time 0 to infinity (AUC0-∞) were considered as primary PK parameters. The secondary PK parameters were the observed time to Cmax (Tmax) and the apparent terminal half-life (T1/2). Cmax and Tmax were the factually measured data and AUC0-t was calculated using the linear and logarithmic trapezoidal methods. AUC0-∞ was calculated according to the following formula: AUC0-∞ = AUC0-t + Clast/λz (Clast is the last measurable concentration and is the first order rate constant of terminal elimination determined from a linear regression line after logarithmic transformation at the end of concentration time curve. λz is the slope calculated by linear regression after logarithmic conversion at the end of the concentration–time curve). T1/2 was calculated to be ln2/λ.
(§6) Statistical analysis was performed by SAS 9.4. Demographic characteristics, safety parameters and pharmacokinetic data were summarized using descriptive statistics, the results were presented as the mean ± SD and the differences between groups were determined by two one-sided tests. […] AUC and Cmax were logarithmically transformed and analyzed by linear mixed effect model. Sequence, period and formulation were fixed effects, and subject within sequence was included as a random effect. Analysis of variance (ANOVA) of cross-over design was performed on the log-transformed variables. […] Bioequivalence was assessed separately in both the fasting and fed groups.

[2] = Single-dose two-period crossover bioequivalence study, fasting: plasma pharmacokinetics of lisinopril and amlodipine (LC-MS/MS, NCA); settings: for concentration at 0 h / concentration at 1 h / concentration at 2 h / concentration at 3 h / concentration at 4 h / concentration at 5 h / concentration at 6 h / concentration at 7 h / concentration at 8 h / concentration at 9 h / concentration at 10 h / concentration at 11 h / concentration at 12 h / concentration at 13 h / concentration at 24 h / concentration at 36 h / concentration at 48 h / concentration at 72 h / concentration at 96 h / concentration at 144 h / concentration at 168 h: human, plasma, po, Plasma concentration of amlodipine, reference (R) tablets; for concentration at 0 h: nominal time 0 h; for concentration at 1 h: nominal time 1 h; for concentration at 2 h: nominal time 2 h; for concentration at 3 h: nominal time 3 h; for concentration at 4 h: nominal time 4 h; for concentration at 5 h: nominal time 5 h; for concentration at 6 h: nominal time 6 h; for concentration at 7 h: nominal time 7 h; for concentration at 8 h: nominal time 8 h; for concentration at 9 h: nominal time 9 h; for concentration at 10 h: nominal time 10 h; for concentration at 11 h: nominal time 11 h; for concentration at 12 h: nominal time 12 h; for concentration at 13 h: nominal time 13 h; for concentration at 24 h: nominal time 24 h; for concentration at 36 h: nominal time 36 h; for concentration at 48 h: nominal time 48 h; for concentration at 72 h: nominal time 72 h; for concentration at 96 h: nominal time 96 h; for concentration at 144 h: nominal time 144 h; for concentration at 168 h: nominal time 168 h
Description: as §1, §2, §3, §4, §5, §6

[3] = amlodipine, intra-subject coefficient of variation

Structure (SMILES): CCOC(=O)C1=C(COCCN)NC(C)=C(C(=O)OC)C1c1ccccc1Cl (centres unmarked) [amlodipine]
- Absorption [1]: almost completely absorbed
- Tmax (clinical): ~6 h
- Intra-CV (%) of AUC0-t [2, 3]: 9.9%
- Intra-CV (%) of AUC0-∞ [2, 3]: 10.5%
- Intra-CV (%) of Cmax [2, 3]: 9.7%
- concentration at 0 h ([2]; Max, maximum over subjects): 0 ng/mL
- concentration at 1 h ([2]; Max, maximum over subjects): 2.24 ng/mL
- concentration at 2 h ([2]; Max, maximum over subjects): 2.57 ng/mL
- concentration at 3 h ([2]; Max, maximum over subjects): 3.08 ng/mL
- concentration at 4 h ([2]; Max, maximum over subjects): 2.45 ng/mL
- concentration at 5 h ([2]; Max, maximum over subjects): 2.98 ng/mL
- concentration at 6 h ([2]; Max, maximum over subjects): 4.18 ng/mL
- concentration at 7 h ([2]; Max, maximum over subjects): 2.76 ng/mL
- concentration at 8 h ([2]; Max, maximum over subjects): 3.48 ng/mL
- concentration at 9 h ([2]; Max, maximum over subjects): 3.04 ng/mL
- concentration at 10 h ([2]; Max, maximum over subjects): 2.86 ng/mL
- concentration at 11 h ([2]; Max, maximum over subjects): 2.92 ng/mL
- concentration at 12 h ([2]; Max, maximum over subjects): 2.98 ng/mL
- concentration at 13 h ([2]; Max, maximum over subjects): 2.75 ng/mL
- concentration at 24 h ([2]; Max, maximum over subjects): 2.45 ng/mL
- concentration at 36 h ([2]; Max, maximum over subjects): 1.96 ng/mL
- concentration at 48 h ([2]; Max, maximum over subjects): 1.69 ng/mL
- concentration at 72 h ([2]; Max, maximum over subjects): 1.21 ng/mL
- concentration at 96 h ([2]; Max, maximum over subjects): 1.11 ng/mL
- concentration at 144 h ([2]; Max, maximum over subjects): 0.574 ng/mL
- concentration at 168 h ([2]; Max, maximum over subjects): 0.455 ng/mL
- concentration at 0 h ([2]; Mean, mean of subjects): 0 ng/mL
- concentration at 1 h ([2]; Mean, mean of subjects): 0.686 ng/mL
- concentration at 2 h ([2]; Mean, mean of subjects): 1.24 ng/mL
- concentration at 3 h ([2]; Mean, mean of subjects): 1.51 ng/mL
- concentration at 4 h ([2]; Mean, mean of subjects): 1.6 ng/mL
- concentration at 5 h ([2]; Mean, mean of subjects): 2.03 ng/mL
- concentration at 6 h ([2]; Mean, mean of subjects): 2.16 ng/mL
- concentration at 7 h ([2]; Mean, mean of subjects): 2.04 ng/mL
- concentration at 8 h ([2]; Mean, mean of subjects): 2.08 ng/mL
- concentration at 9 h ([2]; Mean, mean of subjects): 1.96 ng/mL
- concentration at 10 h ([2]; Mean, mean of subjects): 1.85 ng/mL
- concentration at 11 h ([2]; Mean, mean of subjects): 1.77 ng/mL
- concentration at 12 h ([2]; Mean, mean of subjects): 1.74 ng/mL
- concentration at 13 h ([2]; Mean, mean of subjects): 1.65 ng/mL
- concentration at 24 h ([2]; Mean, mean of subjects): 1.41 ng/mL
- concentration at 36 h ([2]; Mean, mean of subjects): 1.13 ng/mL
- concentration at 48 h ([2]; Mean, mean of subjects): 0.928 ng/mL
- concentration at 72 h ([2]; Mean, mean of subjects): 0.64 ng/mL
- concentration at 96 h ([2]; Mean, mean of subjects): 0.446 ng/mL
- concentration at 144 h ([2]; Mean, mean of subjects): 0.2 ng/mL
- concentration at 168 h ([2]; Mean, mean of subjects): 0.137 ng/mL
- concentration at 0 h ([2]; Min, minimum over subjects): 0 ng/mL
- concentration at 1 h ([2]; Min, minimum over subjects): 0.26 ng/mL
- concentration at 2 h ([2]; Min, minimum over subjects): 0.452 ng/mL
- concentration at 3 h ([2]; Min, minimum over subjects): 0.598 ng/mL
- concentration at 4 h ([2]; Min, minimum over subjects): 0.834 ng/mL
- concentration at 5 h ([2]; Min, minimum over subjects): 1.26 ng/mL
- concentration at 6 h ([2]; Min, minimum over subjects): 1.14 ng/mL
- concentration at 7 h ([2]; Min, minimum over subjects): 1.03 ng/mL
- concentration at 8 h ([2]; Min, minimum over subjects): 0.988 ng/mL
- concentration at 9 h ([2]; Min, minimum over subjects): 0.918 ng/mL
- concentration at 10 h ([2]; Min, minimum over subjects): 0.806 ng/mL
- concentration at 11 h ([2]; Min, minimum over subjects): 0.82 ng/mL
- concentration at 12 h ([2]; Min, minimum over subjects): 0.829 ng/mL
- concentration at 13 h ([2]; Min, minimum over subjects): 0.812 ng/mL
- concentration at 24 h ([2]; Min, minimum over subjects): 0.603 ng/mL
- concentration at 36 h ([2]; Min, minimum over subjects): 0.482 ng/mL
- concentration at 48 h ([2]; Min, minimum over subjects): 0.391 ng/mL
- concentration at 72 h ([2]; Min, minimum over subjects): 0.226 ng/mL
- concentration at 96 h ([2]; Min, minimum over subjects): 0.123 ng/mL
- concentration at 144 h ([2]; Min, minimum over subjects): 0 ng/mL
- concentration at 168 h ([2]; Min, minimum over subjects): 0 ng/mL
